Tests used:
[1] = test system: NSA mice; experiment: Hypothermia study (block of CP 55,940-induced hypothermia); type: in vivo; set-up: Hypothermia 3 mg/kg / Hypothermia 0.3 mg/kg: unit not given here; details: for Hypothermia ID50: block of CP 55,940-induced hypothermia
Method: . […] Core body temperatures were then obtained at various time points following CP 55,940 administration. Core body temperature (to the nearest 0.1° C.) was obtained by rectal probe.

[2] = Clearance study, liver microsomes (human); details: pH 7.4
[3] = Clearance study, liver microsomes (rats); details: rat, pH 7.4

SMILES	Hypothermia 3 mg/kg [1]	other results
CCCNC(=O)c1ccc2c(c1)N=C(c1ccc(Cl)cc1)c1ccccc1S2 [drawing 1588]	54	Hypothermia 0.3 mg/kg [1]: 29
CCCCNC(=O)c1ccc2c(c1)N=C(c1ccc(Cl)s1)c1ccc(Cl)cc1S2 [drawing 1589]	1	
O=C(NN1CCCCCC1)c1ccc2c(c1)N=C(c1cccc(F)c1)c1ccccc1S2 [drawing 1590]	85	Hypothermia 0.3 mg/kg [1]: 21; Hypothermia ID50 [1]: 0.93 mg/kg
O=C(NCCc1ccncc1)c1ccc2c(c1)N=C(c1ccc(Cl)c(Cl)c1)c1ccccc1S2 [drawing 1591]	41	
O=C(NN1CCCCC1)c1ccc2c(c1)N=C(C1CCCCC1)c1ccccc1S2 [drawing 1592]	69	
CCCCNC(=O)c1ccc2c(c1)N=C(c1cccc(F)c1)c1ccccc1S2 [drawing 1593]	36	
Cc1ccc(CNC(=O)c2ccc3c(c2)N=C(c2ccc(Cl)s2)c2ccccc2S3)o1 [drawing 1594]	16	
CCCCNC(=O)c1ccc2c(c1)N=C(c1ccc(Cl)cn1)c1ccccc1S2 [drawing 1595]	53	
O=C(NC1CCC(F)(F)CC1)c1ccc2c(c1)N=C(c1ccc(Cl)s1)c1ccccc1S2 [drawing 1596]	51	
Cc1ccsc1C1=Nc2cc(C(=O)NN3CCCCCC3)ccc2Sc2ccccc21 [drawing 1597]	18	
Cc1ccsc1C1=Nc2cc(C(=O)NCCCC(F)(F)F)ccc2Sc2ccccc21 [drawing 1598]	24	
COc1ccc(C2=Nc3cc(C(=O)NCC(C)C)ccc3Sc3ccccc32)cc1 [drawing 1599]	71	
O=C(NCCCC(F)(F)F)c1ccc2c(c1)N=C(c1ccsc1)c1ccccc1S2 [drawing 1600]		Hypothermia 0.3 mg/kg [1]: 32
CCCCNC(=O)c1ccc2c(c1)N=C(c1ccc(Cl)s1)c1cc(F)ccc1S2 [drawing 1601]	17	
CC(C)CCNC(=O)c1ccc2c(c1)N=C(c1cccc(F)c1)c1ccccc1S2 [drawing 1602]	67	Hypothermia 0.3 mg/kg [1]: 0
O=C(NC1CCCCC1)c1ccc2c(c1)N=C(c1ccc(Cl)cc1)c1ccccc1S2 [drawing 1603]	60	
O=C(NC1CCC(F)(F)CC1)c1ccc2c(c1)N=C(c1cccc(Cl)c1)c1ccccc1S2 [drawing 1604]		Hypothermia 0.3 mg/kg [1]: 5
C[C@@H]1CCC[C@H](C)N1NC(=O)c1ccc2c(c1)N=C(c1cccc(Cl)c1)c1ccccc1S2 [drawing 1605]	−2	
O=C(NCCCC(F)(F)F)c1ccc2c(c1)N=C(c1cccc(F)c1)c1ccccc1S2 [drawing 1606]		Hypothermia 0.3 mg/kg [1]: 11
CCCCNC(=O)c1cnc2c(n1)N=C(c1ccccc1)c1ccccc1S2 [drawing 1607]	7	
O=C(NC1CCC(F)(F)CC1)c1ccc2c(c1)N=C(c1cccc(F)c1)c1ccccc1S2 [drawing 1608]	46	
O=C(NCCc1ccncc1)c1ccc2c(c1)N=C(c1ccc(Cl)s1)c1ccccc1S2 [drawing 1609]	67	
Cc1csc(CNC(=O)c2ccc3c(c2)N=C(c2sccc2C)c2ccccc2S3)c1 [drawing 1610]	−2	

SMILES	Hypothermia 3 mg/kg [1]	other results
O=C(NCc1cccnc1)c1ccc2c(c1)N=C(c1ccc(F)cc1)c1ccccc1S2 [drawing 1611]	28	Hypothermia 0.3 mg/kg [1]: 11
O=C(NCc1cccs1)c1ccc2c(c1)N=C(c1ccc(Cl)s1)c1ccccc1S2 [drawing 1612]	47	
O=C(NCc1cccnc1)c1ccc2c(c1)N=C(c1ccc(Br)cc1)c1ccccc1S2 [drawing 1613]	2	
O=C(NCc1cccc(Cl)c1)c1ccc2c(c1)N=C(c1ccc(Cl)cc1)c1ccccc1S2 [drawing 1614]	−16	
Cc1ccsc1C1=Nc2cc(C(=O)NN3CCCCC3)ccc2Sc2ccccc21 [drawing 1615]	31	
Cc1csc(CNC(=O)c2ccc3c(c2)N=C(c2cccc(C)n2)c2ccccc2S3)c1 [drawing 1616]	54	Hypothermia 0.3 mg/kg [1]: 42; Hypothermia ID50 [1]: 1.8 mg/kg
CCCCNC(=O)c1ccc2c(c1)N=C(c1ccc(Cl)cc1)c1ccc(Cl)cc1S2 [drawing 1617]	30	
O=C(NCc1cccc(Cl)c1)c1ccc2c(c1)N=C(c1ccc(F)cc1)c1ccccc1S2 [drawing 1618]	50	Hypothermia 0.3 mg/kg [1]: 16
CCCCNC(=O)c1ccc2c(c1)N=C(c1ccc(Cl)cc1)c1ccccc1[S+]2[O-] (centres unmarked) [drawing 1619]	31	
O=C(NCc1cccnc1)c1ccc2c(c1)N=C(c1cccc(F)c1)c1ccccc1S2 [drawing 1621]	17	
O=C(NCc1cccs1)c1ccc2c(c1)N=C(c1cccc(Cl)c1)c1ccccc1S2 [drawing 1622]	61	
O=C(NCc1cccs1)c1ccc2c(c1)N=C(c1ccccc1F)c1ccccc1S2 [drawing 1623]	10	
O=C(NCCC(F)(F)F)c1ccc2c(c1)N=C(c1ccc(Cl)s1)c1ccccc1S2 [drawing 1624]	37	
CC(C)CNC(=O)c1ccc2c(c1)N=C(c1ccc(Cl)cn1)c1ccc(F)cc1S2 [drawing 1625]	27	
CCCCNC(=O)c1ccc2c(c1)N=C(c1ccc(Cl)c(F)c1)c1ccccc1S2 [drawing 1626]	79	
CCCCNC(=O)c1ccc2c(c1)N=C(c1ccc(Cl)cn1)c1cc(F)ccc1S2 [drawing 1627]	8	
O=C(NCc1cccs1)c1ccc2c(c1)N=C(c1ccc(Cl)cc1)c1ccccc1S2 [drawing 1628]	92	Hypothermia ID50 [1]: 0.9 mg/kg
CCCCNC(=O)c1ccc2c(c1)N=C(c1ccc(F)cn1)c1ccccc1S2 [drawing 1629]	54	
O=C(NCc1ccc(F)cc1)c1ccc2c(c1)N=C(c1ccc(Cl)cc1)c1ccccc1S2 [drawing 1630]	83	Hypothermia 0.3 mg/kg [1]: 18; Hypothermia ID50 [1]: 1.8 mg/kg
O=C(NCc1ccco1)c1ccc2c(c1)N=C(c1cccc(F)c1)c1ccccc1S2 [drawing 1631]	21	
O=C(NC1CCCCC1)c1ccc2c(c1)N=C(c1cccc(F)c1)c1ccccc1S2 [drawing 1632]	44	
O=C(NCc1cccnc1)c1ccc2c(c1)N=C(c1ccc(Cl)cc1)c1ccccc1S2 [drawing 1633]	27	
CC(C)CNC(=O)c1ccc2c(c1)N=C(c1ccc(Cl)cc1)c1ccccc1S2 [drawing 1634]	79	Hypothermia 0.3 mg/kg [1]: 25

SMILES	Hypothermia 3 mg/kg [1]	other results
C[C@@H]1CCC[C@H](C)N1NC(=O)c1ccc2c(c1)N=C(c1cccc(F)c1)c1ccccc1S2 [drawing 1635]	17	
CC(C)CNC(=O)c1ccc2c(c1)N=C(c1ccc(F)cc1)c1ccccc1S2 [drawing 1636]	53	Hypothermia 0.3 mg/kg [1]: 14
O=C(NCc1ccccn1)c1ccc2c(c1)N=C(c1ccc(Cl)cc1)c1ccccc1S2 [drawing 1637]	42	
O=C(NCc1ccccc1)c1ccc2c(c1)N=C(c1cccc(Cl)c1)c1ccccc1S2 [drawing 1638]	27	
Cc1ccsc1C1=Nc2cc(C(=O)NCc3ccco3)ccc2Sc2ccccc21 [drawing 1639]	30	
O=C(NCc1ccc(F)cc1)c1ccc2c(c1)N=C(C1CCCCC1)c1ccccc1S2 [drawing 1640]	80	Hypothermia 0.3 mg/kg [1]: 24; Hypothermia ID50 [1]: 1.5 mg/kg
O=C(NCc1cccnc1)c1ccc2c(c1)N=C(c1cccc(Br)c1)c1ccccc1S2 [drawing 1641]	56	Hypothermia 0.3 mg/kg [1]: 0
Cc1ccsc1C1=Nc2cc(C(=O)NCc3cccs3)ccc2Sc2ccccc21 [drawing 1642]	25	
O=C(NCCc1cccnc1)c1ccc2c(c1)N=C(c1cccc(Cl)c1)c1ccccc1S2 [drawing 1643]	41	
CC(C)CNC(=O)c1ccc2c(c1)N=C(c1ccc(Cl)s1)c1ccc(F)cc1S2 [drawing 1644]	12	
O=C(NCc1ccc(F)cc1)c1ccc2c(c1)N=C(c1ccc(Cl)cc1)c1ccccc1[S+]2[O-] (centres unmarked) [drawing 1645]	22	
CC(C)CNC(=O)c1ccc2c(c1)N=C(c1cccc(Cl)c1)c1ccccc1S2 [drawing 1646]	54	
O=C(NCc1ccccc1)c1ccc2c(c1)N=C(c1ccc(Cl)cc1)c1ccccc1S2 [drawing 1648]	68	
CC(C)CCNC(=O)c1ccc2c(c1)N=C(c1ccccn1)c1ccccc1S2 [drawing 1649]	21	
O=C(NCc1ccco1)c1ccc2c(c1)N=C(c1ccc(Cl)cc1)c1ccccc1S2 [drawing 1650]	79	Hypothermia 0.3 mg/kg [1]: 28; Hypothermia ID50 [1]: 0.9 mg/kg
O=C(NN1CCCCC1)c1ccc2c(c1)N=C(c1ccc(Cl)cn1)c1ccccc1S2 [drawing 1651]	57	
O=C(NCc1cccc(Cl)c1)c1ccc2c(c1)N=C(N1CCC(F)(F)CC1)c1ccccc1S2 [drawing 1652]	19	Hypothermia 0.3 mg/kg [1]: −31
O=C(NCCCC(F)(F)F)c1ccc2c(c1)N=C(c1ccc(Cl)cc1F)c1ccccc1S2 [drawing 1653]		microsomal CLint at 1 μM [2]: 14 µL/min/mg; microsomal CLint at 1 μM [3]: 105 µL/min/mg
O=C(NCCCC(F)(F)F)c1ccc2c(c1)N=C(c1ccc(Cl)s1)c1ccccc1S2 [drawing 1655]		microsomal CLint at 1 μM [2]: 31 µL/min/mg; microsomal CLint at 1 μM [3]: 136 µL/min/mg
CC(C)CNC(=O)c1ccc2c(c1)N=C(c1ccc(Cl)cc1)c1ccc(F)cc1S2 [drawing 1657]		microsomal CLint at 1 μM [2]: 11 µL/min/mg; microsomal CLint at 1 μM [3]: 63 µL/min/mg
CCCCNC(=O)c1ccc2c(c1)N=C(c1ccc(Cl)cc1)c1ccc(F)cc1S2 [drawing 1663]		microsomal CLint at 1 μM [2]: 9 µL/min/mg; microsomal CLint at 1 μM [3]: 79 µL/min/mg
COc1cccc(C2=Nc3cc(C(=O)NCCCC(F)(F)F)ccc3Sc3ccccc32)n1 [drawing 1667]		microsomal CLint at 1 μM [2]: 24 µL/min/mg; microsomal CLint at 1 μM [3]: 144 µL/min/mg

From patent US20080090805A1, “CB-1 MODULATING COMPOUNDS AND THEIR USE” (ACADIA PHARMACEUTICALS INC., priority 2005, published 2008)
